# Patent US20250339567A1, “COMPOUNDS WITH IMPROVED PHARMACOKINETICS FOR IMAGING AND THERAPY OF CANCER” (priority 2019, published 2025)
# Starred links: 1 amine or outer side, 2 acyl side, 3 side chain; linkers in the order of their positions; H or OH if unused. Non-standard residues stand in square brackets, D forms with d. Residues, ends and D or L forms follow the SMILES beside them. *: point of attachment. DOTA = O=C(O)CN1CCN(CC(=O)O)CCN(CC(=O)*)CCN(CC(=O)O)CC1; αMeW = C[C@](N)(Cc1c[nH]c2ccccc12)C(=O)O; Sta = CC(C)C[C@H](N)[C@@H](O)CC(=O)O; Bta = N[C@@H](Cc1csc2ccccc12)C(=O)O; Gly(cPent) = N[C@H](C(=O)O)C1CCCC1; X1 = O=C(CN1CCC(N[*:1])CC1)[*:2]; Chg = N[C@H](C(=O)O)C1CCCCC1; dOrn = NCCC[C@@H](N)C(=O)O; hSer = N[C@@H](CCO)C(=O)O; Nle = CCCC[C@H](N)C(=O)O; dDap = NC[C@@H](N)C(=O)O; βAla = NCCC(=O)O
# Tested on: not listed separately
# Experiment: Plasma studies: metabolic stability in vitro in human plasma (radio RP-HPLC)
# Format: in vitro ADME
# Settings: not given
# Experimental: Metabolic stability in vitro was determined applying a procedure published by Linder et al. that was slightly modified. Immediately after labeling, human (200 μL) or murine (100 μL) plasma was added and the mixture was incubated at 37° C. for 72±2 h (or 6±0.5 h). Proteins were precipitated by treatment with ice-cold EtOH (150 μL [human], 100 μL [murine]) and ice-cold MeCN (450 μL [human], 300 μL [murine]), followed by centrifugation for 20 min at 13000 rpm. The supernatants were decanted and further analyzed using radio RP-HPLC. […]
row,Structure (SMILES),Amount of intact tracer after incubation in human plasma for 72 ± 2 h (n = 2)
1,"CC(C)C[C@H](NC(=O)C[C@H](O)[C@H](CC(C)C)NC(=O)[C@H](Cc1c[nH]cn1)NC(=O)CNC(=O)[C@@H](NC(=O)[C@H](C)NC(=O)[C@H](Cc1c[nH]c2ccccc12)NC(=O)[C@H](CCO)NC(=O)[C@@H](CCCNC(=N)N)NC(=O)CN1CCC(NC(=O)CN2CCN(CC(=O)O)CCN(CC(=O)O)CCN(CC(=O)O)CC2)CC1)C(C)C)C(N)=O [DOTA-[arg^6, Hse^7]MJ9] ({DOTA}-[X1][dR][hSer]WAVGH[Sta]L-NH2)",18.2 ± 1.9
2,"CC(C)C[C@H](NC(=O)C[C@H](O)[C@H](CC(C)C)NC(=O)[C@H](Cc1c[nH]cn1)NC(=O)CNC(=O)[C@@H](NC(=O)[C@H](C)NC(=O)[C@](C)(Cc1c[nH]c2ccccc12)NC(=O)[C@H](CCC(N)=O)NC(=O)[C@@H](CCCNC(=N)N)NC(=O)CN1CCC(NC(=O)CN2CCN(CC(=O)O)CCN(CC(=O)O)CCN(CC(=O)O)CC2)CC1)C(C)C)C(N)=O [DOTA-[arg^6, α-Me-Trp^8]MJ9] ({DOTA}-[X1][dR]Q[αMeW]AVGH[Sta]L-NH2)",20.1 ± 0.7
3,CC(C)C[C@H](NC(=O)C[C@H](O)[C@H](CC(C)C)NC(=O)[C@H](Cc1c[nH]cn1)NC(=O)CNC(=O)[C@@H](NC(=O)[C@H](C)NC(=O)[C@H](Cc1c[nH]c2ccccc12)NC(=O)[C@H](CCC(N)=O)NC(=O)[C@@H](CCCNC(=N)N)NC(=O)CN1CCC(NC(=O)CN2CCN(CC(=O)O)CCN(CC(=O)O)CCN(CC(=O)O)CC2)CC1)C(C)C)C(N)=O [DOTA-[arg^6]MJ9] ({DOTA}-[X1][dR]QWAVGH[Sta]L-NH2),13.5 ± 3.4
4,"CC(C)C[C@H](NC(=O)C[C@H](O)[C@H](CC(C)C)NC(=O)[C@H](Cc1c[nH]cn1)NC(=O)CNC(=O)[C@@H](NC(=O)[C@H](C)NC(=O)[C@](C)(Cc1c[nH]c2ccccc12)NC(=O)[C@H](CCC(N)=O)NC(=O)[C@@H](Cc1ccccc1)NC(=O)CN1CCC(NC(=O)CN2CCN(CC(=O)O)CCN(CC(=O)O)CCN(CC(=O)O)CC2)CC1)C1CCCCC1)C(N)=O [DOTA-[α-Me-Trp^8, Chg^10]MJ9] ({DOTA}-[X1][dF]Q[αMeW]A[Chg]GH[Sta]L-NH2)",22.6 ± 1.9
5,"CC(C)C[C@H](NC(=O)C[C@H](O)[C@H](CC(C)C)NC(=O)[C@H](Cc1c[nH]cn1)NC(=O)CNC(=O)[C@@H](NC(=O)[C@H](C)NC(=O)[C@](C)(Cc1c[nH]c2ccccc12)NC(=O)[C@H](CCC(N)=O)NC(=O)[C@@H](Cc1ccccc1)NC(=O)CN1CCC(NC(=O)CN2CCN(CC(=O)O)CCN(CC(=O)O)CCN(CC(=O)O)CC2)CC1)C1CCCC1)C(N)=O [DOTA-[α-Me-Trp^8, Cpg^10]MJ9] ({DOTA}-[X1][dF]Q[αMeW]A[Gly(cPent)]GH[Sta]L-NH2)",25.5 ± 1.9
6,"CC(C)C[C@H](NC(=O)C[C@H](O)[C@H](CC(C)C)NC(=O)[C@H](Cc1c[nH]cn1)NC(=O)CN(C)C(=O)[C@@H](NC(=O)[C@H](C)NC(=O)[C@](C)(Cc1c[nH]c2ccccc12)NC(=O)[C@H](CCC(N)=O)NC(=O)[C@@H](Cc1ccccc1)NC(=O)CN1CCC(NC(=O)CN2CCN(CC(=O)O)CCN(CC(=O)O)CCN(CC(=O)O)CC2)CC1)C(C)C)C(N)=O [DOTA-[α-Me-Trp^8, N—Me-Gly^11]MJ9]",14.3 ± 1.2
7,"CC(C)C[C@H](NC(=O)C[C@H](O)[C@H](CC(C)C)NC(=O)[C@H](Cc1c[nH]cn1)NC(=O)CNC(=O)[C@@H](NC(=O)[C@H](CO)NC(=O)[C@](C)(Cc1c[nH]c2ccccc12)NC(=O)[C@H](CCC(N)=O)NC(=O)[C@@H](Cc1ccccc1)NC(=O)CN1CCC(NC(=O)CN2CCN(CC(=O)O)CCN(CC(=O)O)CCN(CC(=O)O)CC2)CC1)C(C)C)C(N)=O [DOTA-[α-Me-Trp^8, Ser^9]MJ9] ({DOTA}-[X1][dF]Q[αMeW]SVGH[Sta]L-NH2)",22.1 ± 2.2

# Next, values leading:
row,Amount of intact tracer after incubation in human plasma for 72 ± 2 h (n = 2),Structure (SMILES)
1,10.2 ± 2.7,CCCC[C@H](NC(=O)[C@H](Cc1ccccc1)NC(=O)[C@H](Cc1c[nH]cn1)NC(=O)CCNC(=O)[C@@H](NC(=O)[C@H](C)NC(=O)[C@](C)(Cc1c[nH]c2ccccc12)NC(=O)[C@H](CCC(N)=O)NC(=O)[C@@H](Cc1ccccc1)NC(=O)CN1CCN(CC(=O)O)CCN(CC(=O)O)CCN(CC(=O)O)CC1)C(C)C)C(N)=O [DOTA-[α-Me-Trp^8]UL] ({DOTA}-[dF]Q[αMeW]AV[βAla]HF[Nle]-NH2)
2,5.9 ± 0.5,CC(C)C[C@H](NC(=O)C[C@H](O)[C@H](CC(C)C)NC(=O)[C@H](Cc1c[nH]cn1)NC(=O)CNC(=O)[C@@H](NC(=O)[C@H](C)NC(=O)[C@H](Cc1c[nH]c2ccccc12)NC(=O)[C@H](CCC(N)=O)NC(=O)[C@@H](Cc1ccccc1)NC(=O)CN1CCC(NC(=O)[C@@H](CN)NC(=O)[C@@H](CCCN)NC(=O)CN2CCN(CC(=O)O)CCN(CC(=O)O)CCN(CC(=O)O)CC2)CC1)C(C)C)C(N)=O [DOTA-orn^3-dap^4-MJ9] ({DOTA}-[dOrn][dDap][X1][dF]QWAVGH[Sta]L-NH2)
3,2.7 ± 0.3,CC(C)C[C@H](NC(=O)C[C@H](O)[C@H](CC(C)C)NC(=O)[C@H](Cc1c[nH]cn1)NC(=O)CNC(=O)[C@@H](NC(=O)[C@H](C)NC(=O)[C@H](Cc1csc2ccccc12)NC(=O)[C@H](CCC(N)=O)NC(=O)[C@@H](Cc1ccccc1)NC(=O)CN1CCC(NC(=O)[C@@H](CN)NC(=O)[C@@H](CCCN)NC(=O)CN2CCN(CC(=O)O)CCN(CC(=O)O)CCN(CC(=O)O)CC2)CC1)C(C)C)C(N)=O [DOTA-orn^3-dap^4-[Bta^8]MJ9] ({DOTA}-[dOrn][dDap][X1][dF]Q[Bta]AVGH[Sta]L-NH2)
4,7.9 ± 2.5,CC(C)C[C@H](NC(=O)C[C@H](O)[C@H](CC(C)C)NC(=O)[C@H](Cc1c[nH]cn1)NC(=O)CNC(=O)[C@@H](NC(=O)[C@H](C)NC(=O)[C@H](Cc1c[nH]c2ccccc12)NC(=O)[C@H](CCO)NC(=O)[C@@H](Cc1ccccc1)NC(=O)CN1CCC(NC(=O)[C@@H](CN)NC(=O)[C@@H](CCCN)NC(=O)CN2CCN(CC(=O)O)CCN(CC(=O)O)CCN(CC(=O)O)CC2)CC1)C(C)C)C(N)=O [DOTA-orn^3-dap^4-[Hse^7]MJ9] ({DOTA}-[dOrn][dDap][X1][dF][hSer]WAVGH[Sta]L-NH2)
5,16.6 ± 0.8,CC(C)C[C@H](NC(=O)C[C@H](O)[C@H](CC(C)C)NC(=O)[C@H](Cc1c[nH]cn1)NC(=O)CNC(=O)[C@@H](NC(=O)[C@H](C)NC(=O)[C@](C)(Cc1c[nH]c2ccccc12)NC(=O)[C@H](CCC(N)=O)NC(=O)[C@@H](Cc1ccccc1)NC(=O)CN1CCC(NC(=O)[C@@H](CN)NC(=O)[C@@H](CCCN)NC(=O)CN2CCN(CC(=O)O)CCN(CC(=O)O)CCN(CC(=O)O)CC2)CC1)C(C)C)C(N)=O [DOTA-orn^3-dap^4-[α-Me-Trp^8]MJ9] ({DOTA}-[dOrn][dDap][X1][dF]Q[αMeW]AVGH[Sta]L-NH2)
6,4.3 ± 0.2,"CCCC[C@H](NC(=O)[C@H](Cc1ccccc1)NC(=O)[C@H](Cc1c[nH]cn1)NC(=O)CCNC(=O)[C@@H](NC(=O)[C@H](C)NC(=O)[C@H](Cc1c[nH]c2ccccc12)NC(=O)[C@H](CCC(N)=O)NC(=O)[C@@H](Cc1ccccc1)NC(=O)CN1CCN(CC(=O)O)CCN(CC(=O)O)CCN(CC(=O)O)CC1)C(C)C)C(N)=O [UL, reference compound] ({DOTA}-[dF]QWAV[βAla]HF[Nle]-NH2)"

# Target: T1, GRPR (Homo sapiens, UniProt P30550)
# T1 construct: endogenous in cells; host or cells: PC-3 cells
# T1 sequence (P30550 whole entry): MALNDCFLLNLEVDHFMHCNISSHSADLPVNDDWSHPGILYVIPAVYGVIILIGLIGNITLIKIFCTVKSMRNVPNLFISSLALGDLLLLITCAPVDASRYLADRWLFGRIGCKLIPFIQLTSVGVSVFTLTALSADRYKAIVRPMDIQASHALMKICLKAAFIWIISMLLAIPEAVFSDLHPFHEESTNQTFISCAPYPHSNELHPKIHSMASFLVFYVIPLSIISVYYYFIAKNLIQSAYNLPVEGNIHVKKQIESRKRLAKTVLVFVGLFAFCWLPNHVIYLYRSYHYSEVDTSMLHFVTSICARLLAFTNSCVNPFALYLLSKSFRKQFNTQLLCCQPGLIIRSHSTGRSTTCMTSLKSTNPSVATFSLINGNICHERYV
# Experiment: Determination of GRPR affinity (IC50), competition with [D-3-[125I]I-Tyr6]MJ9 on PC-3 cells
# Format: binding
# Settings: IC50 ± SD (n = 3), Table 3, [D-3-[125I]I-Tyr6]MJ9 (c = 0.2 nM), 2 h, r.t., HBSS + 1% BSA
# Experimental: The reference ligand for IC50 studies ([D-3-[^125I]I-Tyr^6]MJ9) is prepared according to a previously published procedure. Briefly, 0.2 mg of [D-Tyr^6]MJ9 are dissolved in 20 μL Tracepur water and 280 μL TRIS buffer (25 mm TRIS HCl, 0.4 M NaCl, pH=7.9). After addition of the solution to a vial containing 150 μg Iodo-Gen® (1,3,4,6-Tetrachloro-3α,6α-diphenylglycouril, surface-bound), 5.0 μL (16 MBq) [^125I]Nal(74 TBq/mmol, 3.1 GBq/mL, 40 mM NaOH, Hartmann Analytic, Braunschweig, Germany) are added.
# The GRPR-positive PC-3 cells are cultured in Dublecco modified Eagle medium/Nutrition Mixture F-12 with Glutamax-I (1:1) (Invitrigon), supplemented with 10% fetal calf serum and maintained at 37° C. in a humidified 5% CO2 atmosphere.
# After removal of the culture medium, the cells are washed once with 500 μL of HBSS (Hank's balanced salt solution, Biochrom, Berlin, Germany, with addition of 1% bovine serum albumin (BSA)) and left in 200 μL HBSS (1% BSA) for 9 min at room temperature for equilibration. Next, 25 μL per well of solutions, containing either HBSS (1% BSA) as control or the respective ligand in increasing concentration (10^−10 M-10^−4 M in HBSS), are added with subsequent addition of 25 μL of [D-3-[^125I]I-Tyr^6]MJ9 (2.0 nM) in HBSS (1% BSA).
# All experiments are performed in triplicate for each concentration. After 2 h incubation at room temperature, the experiment is terminated by removal of the medium and consecutive rinsing with 300 μL of HBSS. The media of both steps are combined in one fraction and represent the amount of free radiolabeled reference. Afterwards, the cells are lysed with 300 μL of 1 M NaOH for at least 15 min and united with the 300 μL NaOH of the following washing step. Quantification of bound and free radiolabeled reference is accomplished in a γ-counter.
# IC50 determination for each ligand was repeated twice.
row,IC50 [nM],Structure (SMILES)
1,3.06 ± 0.15,"CC(C)C[C@H](NC(=O)C[C@H](O)[C@H](CC(C)C)NC(=O)[C@H](Cc1c[nH]cn1)NC(=O)CNC(=O)[C@@H](NC(=O)[C@H](C)NC(=O)[C@H](Cc1csc2ccccc12)NC(=O)[C@H](CCC(N)=O)NC(=O)[C@@H](Cc1ccccc1)NC(=O)CN1CCC(NC(=O)CN2CCN(CC(=O)O)CCN(CC(=O)O)CCN(CC(=O)O)CC2)CC1)C(C)C)C(N)=O [[^natGa]DOTA-[Bta^8]MJ9, metal not drawn] ({DOTA}-[X1][dF]Q[Bta]AVGH[Sta]L-NH2)"

# Same assay, conditions: read-out: IC50 ± SD (n = 3), Table 3, [D-3-[125I]I-Tyr6]MJ9 (c = 0.2 nM), 2 h, r.t., HBSS + 1% BSA
row,IC50 [nM],Structure (SMILES)
1,12.2 ± 0.2,"CC(C)C[C@H](NC(=O)C[C@H](O)[C@H](CC(C)C)NC(=O)[C@H](Cc1c[nH]cn1)NC(=O)CNC(=O)[C@@H](NC(=O)[C@H](C)NC(=O)[C@H](Cc1c[nH]c2ccccc12)NC(=O)[C@H](CCO)NC(=O)[C@@H](Cc1ccccc1)NC(=O)CN1CCC(NC(=O)CN2CCN(CC(=O)O)CCN(CC(=O)O)CCN(CC(=O)O)CC2)CC1)C(C)C)C(N)=O [[^natGa]DOTA-[Hse^7]MJ9, metal not drawn]"
